From patent publication US11946934B2, “Biomarker for predicting the sensitivity to a protein kinase inhibitor and a use thereof” (Wellmarker Bio Co., LTD., priority 2014, dated 2024)

What was measured:
Type in all cases: in vivo
[1] = tested on: Colo320HSR control (pMET & pRON negative, without RON activity); test: Colo320HSR xenograft animal model, inhibition of tumor growth; conditions: various concentrations
Description: (§1) Specifically, an animal model using the Colo320HSR cell line without RON activity (control group) and an animal model using the cell line introduced with the RON-active Δ155 gene and the RON-active Δ160 gene, which are constantly expressed, or a RON M1254T mutant were prepared, and their effects of inhibiting tumor formation by CJ12537 were compared.

[2] = tested on: Colo320HSR introduced with RON Δ155; test: as above; conditions: RON-active variant Δ155
Description: as §1

[3] = tested on: Colo320HSR introduced with RON Δ160; test: as above
Description: as §1

[4] = tested on: MKN1 cells transplanted into Balb/c nude mice; test: Stomach cancer cell xenograft mouse model without RON activity, tumor volume; conditions: 30 mpk and 100 mpk oral daily, FIG. 9
Text: It was confirmed whether tumor formation can be inhibited by CJ12537 in a stomach cancer xenograft mouse model without RON activity.
Specifically, 5-to 6-week-old Balb/c nude mice were subcutaneously injected with 1×10^7 cells (MKN1 parent, MKN1 RONΔ160 stable cell) and Matrigel at a 1:1 (v/v) ratio. When the tumor size grew to a size of 90 mm^3 to 100 mm^3, the mice were divided into groups and administered with drugs. Vehicle, CJ12537 (30 mpk), CJ12537 (100 mpk), and positive control (Amgen; 30 mpk) were orally administered daily. The tumor size was measured once in three days. Upon completion of the administration, the mice were sacrificed and tissues were ablated and the weight of tumor was measured. In particular, proteins were extracted from the tissues and the changes in expression pattern of p-RON and related proteins were confirmed by western blot analysis. Additionally, for confirming the change in tumor size, the tumor size was measured once every three days and compared and analyzed even after the completion of drug administration.

CCOc1ccn(-c2ccc(F)cc2)c(=O)c1C(=O)Nc1ccc(Oc2ccnc3cc(-c4cn(C)cn4)sc23)c(F)c1 [CJ12537, 4-ethoxy-N-(3-fluoro-4-(2-(1-methyl-1H-imidazol-4-yl)thieno[3,2-b]pyridin-7-yloxy)phenyl)-1-(4-fluorophenyl)-2-oxo-1,2-dihydropyridin-3-carboxamide]
tumor formation [1]: did not inhibit tumor formation at all
tumor formation [2]: inhibited tumor formation
Tumor growth relative to vehicle (fold) ([3]; Colo320HSR RON Δ160, 30 MPK, vehicle = 1): 0.71 fold
tumor formation ([3]; RON-active variant Δ160): inhibited tumor formation
tumor volume [4]: no noticeable change
